From patent publication US5574178A, “4,6-Di-t-butyl-dihydrobenzofuran-5-ol and its derivatives” (Chugai Seiyaku Kabushiki Kaisha, priority 1992, dated 1996) come the findings set out here.

What all share (type): biochemical
The target of assay [1] is lipid peroxidation due to the autoxidation of linoleic acid. Put plainly: Linoleic acid-MCLA system, Test Case 4. To be noted: linoleic acid 10 mM, MCLA 2 μM, 1-butanol, 37° C.; read-out: 50% inhibition concentration. As for the experimental part:
The test compounds were evaluated for their inhibitory effect against lipid peroxidation due to the autoxidation of linoleic acid.
A reaction solution was prepared by mixing linoleic acid and MCLA (2-methyl-6-(p-methoxyphenyl)-3,7-dihydroimidazo[1,2-a]pyrazin-3-one) in 1-butanol and stored in ice until use. An amount of this reaction solution was sampled in a chemiluminescence measuring cell and, immediately thereafter, the intensity of chemiluminescence due to the autoxidation of linoleic acid was measured at 37° C. in a thermostatic bath. A normal chemiluminescence intensity measurement was conducted about 2-4 min later when the chemiluminescence substantially peaked.

The subject of assay [2] is xanthine oxidase (XOD)-hypoxanthine (HX) system (superoxide). Nature of the assay: Xanthine oxidase system (superoxide generating system). The settings on record: pH 7.4, 37° C. The method, then:
The test compounds were evaluated under the following conditions for their effect in a reaction due to a xanthine oxidase (XOD)-hypoxanthine (HX) system in aqueous solution.
Xanthine oxidase 0.1 U/ml
Hepes buffer solution (pH 7.4)
(§1) A reaction solution was prepared by mixing hypoxanthine and luminol in the Hepes buffer solution and stored in ice until use. After warming the reaction solution at 37° C. for about 10 min, the reaction was started by addition of the xanthine oxidase solution. A measurement was started right after the addition of xanthine oxidase and subsequent stirring; chemiluminescence intensity was normally measured right after the start of the reaction. In the experimental model, luminol-dependent chemiluminescence induced by superoxide generated by enzymatic reaction of xanthine oxidase was detected, thus enabling the measurement of the reactivity with superoxide.

Assay [3] deals with lactoperoxidase reaction system (singlet oxygen). Nature of the assay: Lactoperoxidase system (singlet oxygen system). To be noted: pH 4.5, 37° C. As for the experimental part:
The test compounds were evaluated under the following conditions for their effect against a lactoperoxidase reaction system.
Lactoperoxidase 10 μg/ml
Acetate buffer solution (pH 4.5)
as §1, with “hydrogen peroxide, sodium bromide” for “hypoxanthine”, “acetate” for “Hepes”, “lactoperoxidase” for “xanthine oxidase”, “was” for “was normally”, “singlet oxygen” for “superoxide”, “singlet oxygen.” for “superoxide.”

For a further assay, the system named is Rabbit LDL. Nature of the assay: Amount of TBARS (Cu^2+-induced oxidation of rabbit LDL). The settings on record: 5 μM Cu^2+. The method, then:
Rabbit LDL was prepared in accordance with the method of Havel et al. [Havel, R. J. et al., J. Clin. Invest., 34, (1955)]. After adding 5 μM of Cu^2+, the mixture was warmed until a thiobarbituric acid reactive substance (TBARS) was produced. The test compounds were evaluated for their anti-oxidative action with the amount of TBARS being used as an index. [formula]

For the compound `CCC(C)c1cc2c(c(C(C)(C)C)c1O)CCO2` (stereo not shown) [Comparison 7, reference compound], the IC50 in assay [1] worked out at 7 µM. Moreover, the “Chemiluminescence intensity (% of control)” value in assay [2] (at 20 μM of compound) was 55.8 % of control; in assay [2] (at 200 μM of compound) it was 17.5 % of control; in assay [3] (at 20 μM of compound), 86.2 % of control; in assay [3] (at 200 μM of compound), 0.8 % of control.
In the same order, the values of `CC1Cc2c(ccc(O)c2C(C)(C)C)O1` (stereo not shown) [Comparison 2, reference compound] are 54 µM, 32.7 % of control, 3.2 % of control, 82.1 % of control and 15.1 % of control.
Regarding `CCCc1c2c(c(C(C)(C)C)c(O)c1C(C)(C)C)CC(C)(C)O2` [q, 5-Hydroxy-4,6-Di-tert-Butyl-2,2-Dimethyl-7-Propyl-2,3-Dihydrobenzofuran], the “TBARS produced (%)” value with Rabbit LDL (at 10^-5 M of compound, 10 µM) is listed as 56.8%; in the assay with Rabbit LDL (at 10^-6 M of compound, 1 µM), 97.4%. In assay [1], the IC50 was found to be 5 µM. Also, the “Chemiluminescence intensity (% of control)” value in assay [3] (at 20 μM of compound) is 104.0 % of control; in assay [3] (at 200 μM of compound), 73.4 % of control.
As for `CC(C)(C)c1cc(O)c(C(C)(C)C)c2c1OCC2` [Comparison 5, reference compound], the IC50 in assay [1] is 41 µM. The “Chemiluminescence intensity (% of control)” value in assay [2] (at 20 μM of compound) was 21.9 % of control; in assay [2] (at 200 μM of compound), 8.2 % of control; in assay [3] (at 20 μM of compound) it was 95.3 % of control; in assay [3] (at 200 μM of compound), 4.5 % of control.
As for `CC(C)(C)c1cc2c(c(C(C)(C)C)c1O)CCO2` [Compound a, 4,6-Di-tert-Butyl-5-Hydroxy-2,3-Dihydrobenzofuran], the “TBARS produced (%)” value in the assay on Rabbit LDL (at 10^-5 M of compound, 10 µM) is listed as 10.3%; in the assay on Rabbit LDL (at 10^-6 M of compound, 1 µM) it was 52.2%. Besides, the IC50 in assay [1] stood at 7 µM. Further, the “Chemiluminescence intensity (% of control)” value in assay [2] (at 20 μM of compound) was 41.8 % of control; in assay [2] (at 200 μM of compound), 26.1 % of control; in assay [3] (at 20 μM of compound), 94.5 % of control; in assay [3] (at 200 μM of compound), 56.6 % of control.
For the compound `CC(C)(C)c1c(O)ccc2c1CCO2` [Comparison 1, reference compound], the IC50 in assay [1] stood at 62 µM. In addition, the “Chemiluminescence intensity (% of control)” value in assay [2] (at 20 μM of compound) was 23.9 % of control; in assay [2] (at 200 μM of compound) it was 6.3 % of control; in assay [3] (at 20 μM of compound) it was 77.6 % of control; in assay [3] (at 200 μM of compound), 6.0 % of control.
For `CC1Cc2c(c(C(C)(C)C)cc(O)c2C(C)(C)C)O1` (stereo not shown) [Comparison 6, reference compound] the same measures were 19 µM, 31.9 % of control, 24.0 % of control, 105.8 % of control and 8.1 % of control.
